From US20260131007A1, “Mannose 6-Phosphate Receptor Binding Compounds for the Degradation of Extracellular Proteins” (Avilar Therapeutics, Inc., priority 2023, published 2026) come the findings set out here.

Assay [1] concerns the target T1, hIGF-IIR and IgG1 (ternary complex) (Homo sapiens, UniProt P01857+P11717).
T1 construct: purchased R&D Systems 6418-GR
Description: HTRF-based ternary complex formation assay for hIGF-IIR targeting Extracellular Protein Degraders. The class given is binding. The text has this: The ternary complex formation assay is designed to identify and determine the potency of Extracellular Protein Degrader molecules which can induce the formation of ternary complex between the Extracellular Protein Degrader hIGF-IIR. Titrating Extracellular Protein Degrader to fixed amount of hIGF-IIR results in a bell-shaped curve (except molecules whose binary complex affinity between Extracellular Protein Degrader and hIGF-IIR). The peak mean represents Extracellular Protein Degrader concentration at which maximum ternary complex is formed. Too much or too little Extracellular Protein Degrader leads to decreased ternary complex formation due to formation of binary complex (Hook effect). Dose response of Extracellular Protein Degrader compounds (16-point 3-fold dilution series, 100X) were prepared by Echo Acoustic Liquid Handler (Beckman Coulter Life Sciences) using 384-well LDV microplate. Then 200 nL of the solutions were transferred to an OptiPlate 384-well microplate (PerkinElmer, 6007290). To the assay plate, 10 μL working solution containing 60 nM of Biotinylated-IgG1 (Viva 20211108) and 60 nM of His-tagged hIGF-IIR (R&D Systems, 6418-GR) in assay buffer 50 mM Tris, pH 7.5, 150 mM NaCl, 50 mM CaCl2, 0.01% Tween-20 were added. The plate was incubated for 60 min at room temperature with gentle shaking to allow molecular interaction to reach equilibration. Following this, 10 μL of HTRF detection solution containing 15 nM Streptavidin-d2 (PerkinElmer, 610SADLA) and 0.7 nM MAb Anti 6HIS—Tb cryptate (PerkinElmer, 61HISTLA) in PPI Terbium detection buffer (PerkinElmer, 61DB10RDF) were added. The assay plate was incubated at room temperature with gentle shaking for 60 min to allow HTRF signal to develop. The plate was gently spun on a centrifuge then placed on an EnVision plate reader (Perkin Elmer, EnVision 2104) to read fluorescence ratio of 665 nm/615 nm. Data were analyzed by fitting with Bell-shaped non-linear regression model using GraphPad Prism (GraphPad Software, LLC; version 9.4.1). Mean fluorescence intensity is graphed versus compound concentration and the EC50 for TCF is calculated from the inflection point of the curve (GraphPad).
For orientation: In TR-FRET formats the signal depends on donor and acceptor labels being close together.

A further assay has as its system K562 cells. Description: Ternary complex formation (TCF) in K562 cells, flow cytometry with AF488-labeled human IgG. The class given is cell-based. The conditions noted are these: AF488-labeled human IgG 300 nM, 4° C., 1 hour. Here is the method: K562 cells were seeded in 96-well assay plate using K562 cell medium, then compounds and AF488-labeled human IgG (final concentration of 300 nM) were added at 4° C. and incubated for 1 hour. Afterwards, the cells were washed once with 1×PBS+0.1% BSA (Cold) and centrifuged at 1000 rpm for 5 minutes. Next, cells were re-suspended in 150 μL 1×PBS+0.1% BSA and ran flow cytometry on iQue® Screener PLUS.
(In general: In flow cytometry, cells or beads pass a laser one at a time.)

A further assay concerns IgG. Description: Uptake and degradation in K562 cells (Western blot). The class given is cell-based, human. The conditions noted are these: K562 cells treated with compound and IgG; FIG. 14-17. As to the method:
On day one, cells were harvested, counted, and seeded 1 million/well in 6 well plates for each cell line. On day two, cells were treated with compounds and IgG (Sigma, Cat #14506 dissolved in medium). Treated cells were washed three times with PBS, followed by addition of 200 μL of RIPA buffer (+HALT protease and phosphatase inhibitors) per well. Lysates were left on ice for 5 minutes then were collected into microcentrifuge tubes using a cell scraper. Lysates were then kept on a shaker for 30-60 minutes at 4° C. followed by centrifugation at 14,000 rpm at 4° C. for 15 minutes. Then, supernatants were transferred to fresh tubes and total protein concentration of each sample was determined using Pierce BCA kit. Next, 25 ug total protein of each sample was resolved on a 4-20% gels and transferred to PVDF membranes. Membranes were blocked in TBST+5% milk (made fresh) for one hour while shaking at room temperature. Then, the first antibody was added in TBST+5% milk at 4° C. overnight: a) Rabbit anti-human IgG, Abcam; Cat #ab181236-1:1000, b) anti-β-actin, Cell signaling Tech, Cat #3700S)-1:3000. On the next day, membranes were washed with TBST 10 minutes each for three times. Later, the second antibody was added in TBST+5% milk at room temperature over one hour: a) IRDye 800CW Goat anti Rabbit IgG, Licor, Cat #926-32211)-1:10,000; b) IRDye 680RD Goat anti Mouse IgG (Licor Cat #926-68078)-1:10,000. Then, membranes were washed with TBST 10 minutes each for three times. The results were detected by Licor. Data from the uptake and degradation assay is shown in FIG. 14, FIG. 15, FIG. 16, and FIG. 17.

For another assay, the system named is human IgG (hIgG). Nature of the assay: DMPK study: degradation of coadministered human IgG in rats. Format: in vivo. The conditions noted are these: male SD rats, IgG 200 mg/kg IV, compound IV an hour later; FIG. 11, FIG. 12. Here is the method:
The dose formulation of IgG at 200 mg/kg was administered via IV injection to male SD rats, and Compound 5 was administered via IV injection an hour later (after IgG dosing). About 0.2 mL of blood was collected via jugular vein at each time point and was transferred into pre-cooled low binding EP tubes containing 4 μL of K2-EDTA (0.5 M) as anti-coagulant placed on wet ice. After blood was collected, the samples were processed for plasma by centrifugation at approximately 4° C., 3200 g for 10 minutes, the plasma was obtained within 30 minutes of blood collection. Then the plasma was transferred to two clean low binding EP tubes (50 μL each, one for PK, one for PD) and quickly frozen over dry ice and kept below −60° C. or lower for LC-MS/MS analysis. Plasma concentration versus time data was plotted in graph and analyzed by non-compartmental approaches using the Phoenix WinNonlin 6.3 software program. Related PK parameters were calculated according to dosing route, e.g. CL, Vdss and C0 for intravenous administration, Cmax, Tmax or % F for extravascular administration, and T1/2, AUC(0-1), AUC(0-inf), MRT(0-1), MRT(0-inf) for all routes. The quantification of human IgG concentration in animal plasma was conducted using human IgG ELISA kit. Plotted pharmacokinetic and pharmacodynamic data can be found in FIG. 10, FIG. 11, FIG. 12, and FIG. 13.

Each structure is given as a SMILES string.

`CC(C)C[C@@H]1NC(=O)[C@H](Cc2cnc[nH]2)NC(=O)[C@H](Cc2c[nH]c3ccccc23)NC(=O)[C@H](C)NC(=O)[C@@H]2CSSC[C@H](NC(=O)[C@H](Cc3c[nH]c4ccccc34)CC(=O)[C@H](C(C)C)NC(=O)[C@H](CC(C)C)NC(=O)[C@H](CCC(=O)O)NC(=O)CNC1=O)C(=O)N[C@@H]([C@@H](C)O)C(=O)N1CCC[C@@H]1C(=O)N1C[C@@H](NC(=O)COCCOCCOCC(=O)NC(COCCC(=O)NCCOCCn3cc(CCO[C@H]4O[C@H](CCP(=O)(O)O)[C@@H](O)[C@H](O)[C@@H]4O)nn3)(COCCC(=O)NCCOCCn3cc(CCO[C@H]4O[C@H](CCP(=O)(O)O)[C@@H](O)[C@H](O)[C@@H]4O)nn3)COCCC(=O)NCCOCCn3cc(CCO[C@H]4O[C@H](CCP(=O)(O)O)[C@@H](O)[C@H](O)[C@@H]4O)nn3)C[C@H]1C(=O)N[C@@H](CC(=O)O)C(=O)N2` [Compound 5]: the EC50 is under 50 nM in assay [1] and 50 to 250 nM with K562 cells. In addition, the “degradation of IgG (gel electrophoresis image)” value with IgG was “degradation of IgG”. Besides, in the assay on human IgG (hIgG), the “degradation of coadministered human IgG (percent of initial hIgG over time)” value was “degradation of coadministered human IgG”.

As a reminder, the EC50 is the concentration that produces a half-maximal response.
